Columns and labels:
endothelial cells = conditions: from Mendel et al. 2000 (SU5416) and Laird et al. 2000 (SU6668); read-out: predetermined IC50 concentration; cited from earlier work
HUVEC [1] = assay: Annexin V staining test for endothelial cells undergoing apoptosis (Annexin V-FITC/PI flow cytometry); type: cell-based, human; conditions: HUVEC on collagen I, 0.0011 μM mM docetaxel, FIG. 6
From the text: Altered cell attachment and loss of membrane integrity are among the earliest morphological features of programmed cell death. Annexin V, a 35-36 kDa Ca^2+-dependent phospholipid-binding protein, has a high affinity for the membrane phospholipid phosphatidylserine, normally located on the inner leaflet of the cell membrane (Raynal et al., 1994, Biochem. et Biophys. Acta. 1197:63-93). In cells undergoing apoptosis, however, phosphatidylserine is translocated to the outer leaflet of the plasma membrane and can be detected by Annexin V labeled with fluorescent dyes, such as FITC. To distinguish truly apoptotic cells from necrotic cells, Annexin V was used in combination with PI exclusion. In this assay, HUVEC undergoing apoptosis are Annexin V-positive, PI negative, while necrotic cells are Annexin V-positive, PI-positive.
As an example, HUVEC cells were cultured on collagen I and treated with 0.0011 μM mM docetaxel and then stained with both Annexin V and PI. Annexin V binding and PI staining of nuclei were documented for the same cell population using the PharMingen Annexin V flow cytometry assay and two-color immunofluorescence on live HUVEC monolayers. Staining with Annexin V-FITC was visible on the membrane as green fluorescence, and PI staining was visible in the nucleus as red fluorescence. […] In a separate experiment, HUVEC cells were transferred into Ultra Low Attachment 24-well plates (Corning, Inc., Corning N.Y.) covered with a layer of hydrogel that is hydrophilic and neutrally charged. The hydrogel surface inhibits non-specific immobilization, and therefore subsequent cell attachment, because proteins and other biomolecules passively adsorb to surfaces through hydrophobic and ionic interactions. Because of the lack of appropriate ECM providing anti-apoptotic signals, HUVEC undergo rapid apoptosis under these culture conditions. For example, 24 hours after their transfer into Ultra Low Attachment plates, 61% of HUVEC cells were undergoing an (Annexin V-positive, PI-negative) apoptotic process (shown in FIG. 7).

HUVEC [2] = assay: Dil-ac-LDL uptake by HUVEC; type: cell-based, human; conditions: HUVEC on collagen I, 48 hours, 10 μM docetaxel, FIG. 12
From the text: The uptake of Dil-ac-LDL (Biomedical Technologies, Inc., Stoughton Mass.) was utilized to identify and characterize differentiated VEC using fluorescent microscopy on live cell monolayers. After uptake, Dil-ac-LDL is degraded by lysosomal enzymes in endothelial cells, with the Dil fluorescent probe accumulating in the intracellular membrane. (Pitas et al., 1985, J. Cell. Biol. 100:103-117). Discrimination using this system is high, because no other cell type, with the exception of macrophages, is labeled to the same degree as VEC (Voura et al, 1998, Microsc. Res. Tech. 43: 265-275; Pitas et al., 1985, J. Cell Biol. 100:103-117), and macrophages can be excluded from the analysis and sorting protocols with CD45 staining. In addition, macrophages can be differentiated from VEC because the […] is more brightly labeled with Dil-ac-LDL.
(§1) HUVEC were cultured for 48 hours on collagen I and treated with either 10 μM docetaxel, 1 μM docetaxel, or 10 μM thalidomide. The effect on cell morphology was observed by phase contrast microscopy. In addition, apoptotic HUVEC cultured on collagen in the presence of 10 μM docetaxel were stained with AnnexinV-FITC (green fluorescence) and PI (red fluorescence) and visualized with immunofluorescent photomicrography. […] An atypical pattern of Dil-ac-LDL accumulation in drug-treated cells was observed under high magnification.

[3] = system: VEC derived from fresh tumor specimens; assay: Microarray analysis of drug-resistant versus drug-sensitive tumor-derived VEC sorted by Annexin V; type: cell-based, human; conditions: 0.1 μM docetaxel, 24 hours
Experimental: Anti-angiogenesis agents were screened using highly purified populations of endothelial cells derived from fresh tumor specimens. 2×10^7 VEC that were sorted for the expression of CD31 and CD105 endothelial markers were exposed to 0.1 μM docetaxel or 50 μM BSO, a proprietary drug. […] After 24 hours of drug exposure in cytophobic plates, VEC were sorted under sterile conditions using the above Annexin V-flow cytometry protocol. To ensure the purity of sorted VEC, the sorted populations were reanalyzed by flow cytometry for Annexin V and PI staining, as shown in FIG. 17. The purity of the sorted VEC populations varied between 97.3% and 99.1%. Total RNA was isolated from both resistant (Annexin V−/PI−) and sensitive (Annexin V+/PI−) populations, and cDNA probes were hybridized with Research Genetics GeneFilters© microarrays containing over 40,000 known human gene sequences. In order to compare the microarray results for the drug-resistant sample to the drug-sensitive sample, FIG. 18 is a two-dimensional scatter plot constructed of intensity values from the microarrays normalized by converting to the fraction of total intensity and then log transformed, which was used to compare the microarray results for the resistant and sensitive sample. Diagonal lines were utilized that separated the genes that have more than a 2-fold difference in expression level.

HUVEC [4] = assay: HUVEC morphology by phase contrast microscopy; type: cell-based, human; conditions: HUVEC on collagen I, 48 hours; 10 μM or 1 μM docetaxel, 10 μM thalidomide, FIG. 11
Experimental: as §1

HUVEC [5] = assay: APO-DIRECT assay (late apoptosis, DNA breaks); type: cell-based, human; conditions: collagen I, 1 μM docetaxel, 48 hours, FIG. 8
From the text: The APO-DIRECT assay (Phoenix Flow Systems, San Diego, Calif.) utilizes single step fluorescent labeling and flow cytometric analysis by taking advantage of the multitude of 3′-hydroxyl termini of DNA present in apoptotic cells. One of the hallmarks of cellular self-destruction by apoptosis is the activation of nucleases that degrade the higher order chromatin structure of the DNA into fragments of 50 to 300 kilobases. These DNA fragments result in the appearance of “DNA laddering” when the DNA is analyzed by agarose gel electrophoresis. (Arends et al., 1990, Am. J. Pathol. 136:593-608). Apoptotic cells were identified by labeling the 3′-hydroxy ends of double- and single-stranded DNA breaks with fluorescent-tagged deoxyuridine triphosphate nucleotides (F-dUTP) using the enzyme deoxynucleotidyl transferase (TdT). […] The APO-DIRECT assay identified cells undergoing apoptosis at a later stage of programmed cell death than assays based on Annexin V binding.
In these experiments, HUVEC were incubated on collagen I for 48 hours in the presence of 1 μM docetaxel. The cells were fixed in paraformaldehyde and stored at −20° C. until use. […] The gating display was created according to Phoenix Flow protocol using Linear Red Fluorescence (DNA) on the X-axis and Log green Fluorescence (d-UTP) on the Y-axis. […]

HUVEC [6] = assay: HUVEC tubulogenesis on MATRIGEL; type: cell-based, human; conditions: three hours after cell transfer
From the text: Functional tests were also used to characterize the differentiation status of VEC cultured in different growth environments in vitro, as previously described. (Hewett et al., 1993, In Vitro Cell Dev. Biol. 29A: 823-830; Benelli et al., 1999, Int. J. Biol Markers 14: 243-246). MATRIGEL, a three-dimensional support matrix that is composed of solubilized membranes extracted from Engelbreth-Holm-Swarm (“EHS”) mouse sarcoma cells, was used because of the ability of mammalian VEC derived from different tissue sources to form capillary-like tubules and generate branched and forked networks in this media. The major components of this matrix are ECM proteins, such as laminin, collagen IV, entactin, and heparan sulphate proteoglycan, as well as growth factors, such as bFGF and EGF. MATRIGEL has previously been used to induce and maintain differentiation of endothelial, muscle, and neuronal cells, and for the development of three-dimensional matrix and cell invasion systems in vitro. (Gargett et al., 2000, Hum. Reprod. 15:293-301; Voura et al., 1998, Microsc. Res. Tech. 43: 265-275).
VEC were cultured both on BIOCOAT MATRIGEL matrix-coated tissue culture flasks (Becton Dickinson), and on MATRIGEL matrix prepared from pre-frozen gels that were thawed, kept at +4° C. before use and solidified at +37° C. for 3-16 hours before testing. The optimal time to detect the formation of tubules and capillary-like networks on MATRIGEL was from 3-6 hours. (Gargett et al., 2000, Hum. Reprod. 15:293-301; Voura et al., 1998, Microsc. Res. Tech. 43: 265-275). […] No viable VEC were found in MATRIGEL cultures after 48 hours.

[7] = RESISTANT, resistant versus sensitive VEC
[8] = SENSITIVE, resistant versus sensitive VEC

Cc1cc(C)c(/C=C2\C(=O)Nc3ccccc32)[nH]1 [SU5416]
IC50 (endothelial cells): 1 µM

Cc1[nH]c(/C=C2\C(=O)Nc3ccccc32)c(C)c1CCC(=O)O [SU6668]
IC50 (endothelial cells): 0.34 µM

CC(=O)O[C@@]12CO[C@@H]1C[C@H](O)[C@@]1(C)C(=O)[C@H](O)C3=C(C)[C@@H](OC(=O)[C@H](O)[C@@H](NC(=O)OC(C)(C)C)c4ccccc4)C[C@@](O)([C@@H](OC(=O)c4ccccc4)[C@H]21)C3(C)C [docetaxel]
cells dead due to either apoptosis or necrosis (HUVEC [1]): 16% | cells intact (Annexin V-negative, PI-negative) (HUVEC [1]): 80% | cells undergoing apoptosis (HUVEC [1]): 3.5% | Dil-ac-LDL uptake (HUVEC [2]): very few docetaxel-treated HUVEC took up DIL-as-LDL | Ratio, Human HLK1 mRNA, complete cds [3, 7]: 3.6 | Ratio, Interferon regulatory factor 5 [3, 7]: 4.4 | Ratio, Keratin, type I cytoskeletal 14 [3, 7]: 4 | Ratio, Small proline-rich protein 1B (cornifin) [3, 7]: 3.6 | Ratio, Tuberin [3, 7]: 3.2 | Ratio, Fibrinogen beta-chain precursor ([3]; SENSITIVE): 4.9 | Ratio, Human TWIK-related acid-sensitive K + channel gene ([3]; SENSITIVE): 5.9 | Ratio, Human metallothionein (MT)I-F gene [3, 8]: 6.2 | Ratio, Human mucosal addressin cell adhesion molecule [3, 8]: 9.5 | Ratio, Human putative fatty acid desaturase [3, 8]: 5.2 | effect on cell morphology (HUVEC [4]): rounded and partially detached HUVEC | HUVEC that had undergone apoptosis (HUVEC [5]): 73% | tubulogenesis on MATRIGEL (HUVEC [6]; 10 μM, FIG. 13): complete absence of VEC-like tubules | tubulogenesis and capillary-like network formation on MATRIGEL (HUVEC [6]; lower doses (1, 0.1, 0.01, 0.001 μM)): inhibited tubulogenesis and capillary-like network formation

O=C1CCC(N2C(=O)c3ccccc3C2=O)C(=O)N1 (stereo not shown) [thalidomide]
effect on cell morphology (HUVEC [4]): no effect on HUVEC morphology | effects on HUVEC tubulogenesis on MATRIGEL (HUVEC [6]; 10, 1, 0.1, 0.01 and 0.001 μM): No effects
